The values below come from patent US8129381B2, “Caspase inhibitors and uses thereof” (Vertex Pharmaceuticals Incorporated, priority 2002, dated 2012).

The subject of one test is rat cortical neurons. Kind of test: Hypoxia-induced apoptosis of rat cortical neurons. The class given is cell-based, Wistar rat. To be noted: Cortical neurone, oxygen-depleted serum-free medium, Cell Death Detection ELISA (DNA fragmentation). Here is the method: Cortical neurons are dissociated from Wistar rat embryos (E17) by a modification of the procedure of Rogers et al., Brain Res. Bulletin, 44:131 (1998). Briefly, cerebral cortices are isolated aseptically from 15-20 Wistar rat embryos. A cell suspension is prepared by mincing the cerebral cortices and digesting them with papain. Cells are washed with ovomucoid enzyme inhibitor and DNaseI and plated onto Poly-D lysine coated plates in high glucose DMEM containing 10% heat-inactivated fetal calf serum, L-glutamine, penicillin and streptomycin. The yield of neurons is […] per embryo and they are 80-90% viable as assessed by Trypan blue exclusion.
The neurons are cultured in complete medium at 37° C. in a normal atmosphere for 48 hours prior to the hypoxia experiments. For hypoxia, the normal cell medium is replaced by oxygen-depleted serum-free medium. Cells are incubated in an atmosphere of 95% N2/5% CO2 for various lengths of time. Compounds are dissolved in DMSO at 100 mM then diluted in medium and added to the culture from time=0. The level of apoptosis is measured using a Cell Death Detection ELISA kit (Roche) which detects DNA fragmentation. Plates are read at 405 nm. Controls included cells cultured in aerobic conditions in serum-containing medium (+serum) and cells cultured in aerobic conditions in serum-deprived medium (−serum).
Compounds with an IC50>0.5 μM are listed as “A”. Compounds with an IC50 between 0.1 μM and 0.5 uM are listed as “B”. Compounds with an IC50<0.1 μM are listed as “C”.
On the technique in general: In an ELISA, binding on a coated surface is turned into a signal by an enzyme label.

Test [1] relates to IL-1β secretion from human whole blood. Kind of test: Inhibition of IL-1β secretion from whole blood. Format: cell-based. To be noted: human whole blood diluted 1:2 in PBS, LPS 5 ng/ml, 18 hours, ELISA. Here is the method: Human blood is freshly drawn from healthy donors and diluted 1:2 in PBS. To 500 μl of diluted blood […] of prediluted test compound in RPMI medium and […] LPS (5 ng/ml final concentration on the plate) are added (LPS, Serotype 0111:B4, Sigma L3012). After stimulation for 18 hours supernatants are collected and assayed for IL-1β levels using the appropriate ELISA kit (R&D systems).
Compounds with an IC50>10 μM are listed as “A”. Compounds with an IC50 between 1 μM and 10 uM are listed as “B”. Compounds with an IC50<1 μM are listed as “C”.

Test [2] has as its target recombinant, purified human Caspase-8 (Homo sapiens, UniProt Q14790). As to the kind of experiment: Enzyme assay, caspase inhibition (fluorogenic substrate cleavage). Format: biochemical. The note with it: second order rate constant of enzyme inactivation; substrate Acetyl-Asp-Glu-Val-Asp-amino-4-methylcoumarin. The text has this:
(§1) The assays for caspase inhibition are based on the cleavage of a fluorogenic substrate by recombinant, purified human Caspases −1, −3, −7 or −8. The assays are run in essentially the same way as those reported by Garcia-Calvo et al., J. Biol. Chem. 273, 32608-32613 (1998), using a substrate specific for each enzyme. The substrate for Caspase-1 is Acetyl-Tyr-Val-Ala-Asp-amino-4-methylcoumarin and the substrate for Caspases −3, −7 and −8 is Acetyl-Asp-Glu-Val-Asp-amino-4-methylcoumarin both as disclosed in Garcia-Calvo et al., J. Biol. Chem. 273, 32608-32613 (1998).
(§2) The observed rate of enzyme inactivation at a particular inhibitor concentration, kobs, is computed by direct fits of the data to the equation derived by Thornberry et al., Biochemistry, 33, […] (1994) using a nonlinear least-squares analysis computer program (PRISM 2.0; GraphPad software). To obtain the second order rate constant, kinact, kobs values are plotted against their respective inhibitor concentrations and kinact values are subsequently calculated by computerized linear regression.
(§3) Compounds with kinact(M^−1s^−1)>500000 are listed as “A”. Compounds with kinact(M^−1s^−1) between 100000 and 500000 are listed as “B”. Compounds with kinact(M^−1s^−1)<100000 are listed as “C”.

The target of test [3] is T1, recombinant, purified human Caspase-3 (Homo sapiens, UniProt P42574).
T1 sequence (P42574 29-175 limits assumed): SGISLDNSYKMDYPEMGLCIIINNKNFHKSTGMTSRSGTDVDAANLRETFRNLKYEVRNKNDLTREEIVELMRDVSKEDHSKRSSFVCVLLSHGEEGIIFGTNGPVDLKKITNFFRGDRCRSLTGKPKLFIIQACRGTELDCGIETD
T1 sequence (P42574 176-277 limits assumed): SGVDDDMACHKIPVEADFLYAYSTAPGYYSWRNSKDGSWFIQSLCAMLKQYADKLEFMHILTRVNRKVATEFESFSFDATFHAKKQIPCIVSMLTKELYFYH
The test is described as above. Format: biochemical. The note with it: second order rate constant of enzyme inactivation; substrate Acetyl-Asp-Glu-Val-Asp-amino-4-methylcoumarin.
Text: as §1, §2, §3

In test [4] the target is T2, recombinant, purified human Caspase-1 (Homo sapiens, UniProt P29466).
T2 sequence (P29466 120-297 limits assumed): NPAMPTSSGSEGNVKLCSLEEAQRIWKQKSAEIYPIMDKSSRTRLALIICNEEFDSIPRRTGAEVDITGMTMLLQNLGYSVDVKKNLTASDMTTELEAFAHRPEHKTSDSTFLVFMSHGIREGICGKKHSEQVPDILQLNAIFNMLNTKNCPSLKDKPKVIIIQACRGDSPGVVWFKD
T2 sequence (P29466 317-404 limits assumed): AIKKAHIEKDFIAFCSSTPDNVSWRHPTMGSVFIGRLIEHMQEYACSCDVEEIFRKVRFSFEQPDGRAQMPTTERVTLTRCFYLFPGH
The test is described as above. The class given is biochemical. The note with it: second order rate constant of enzyme inactivation; substrate Acetyl-Tyr-Val-Ala-Asp-amino-4-methylcoumarin.
Text: as §1, §2, §3

recombinant, purified human Caspase-8, sequence (Q14790 217-374 limits assumed): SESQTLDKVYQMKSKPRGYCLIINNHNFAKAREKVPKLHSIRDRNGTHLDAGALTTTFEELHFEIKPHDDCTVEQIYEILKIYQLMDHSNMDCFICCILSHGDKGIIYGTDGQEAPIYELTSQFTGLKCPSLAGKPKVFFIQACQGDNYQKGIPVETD
recombinant, purified human Caspase-8, sequence (Q14790 385-479 limits assumed): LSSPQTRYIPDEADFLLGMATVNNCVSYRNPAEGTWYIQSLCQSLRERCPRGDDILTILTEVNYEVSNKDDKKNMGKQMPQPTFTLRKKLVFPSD

Turning to `CC[C@@H](C(=O)NC(CC(=O)O)C(=O)CF)n1ccc2ccc(Cl)cc2c1=O` (mixture of isomers) [Compound 1, (S)-3-[2-(7-chloro-1-oxo-1H-isoquinolin-2-yl)-butyrylamino]-5-fluoro-4-oxo-pentanoic acid], the half-maximal inhibitory concentration (IC50) – broadly, the concentration at which inhibition is half-maximal – in the test on rat cortical neurons is 100 to 500 nM; in test [1], below 1000 nM. Moreover, the “kinact Caspase-8” value in test [2] is “B (Compounds with kinact(M^−1s^−1) between 100000 and 500000 are listed as “B”)”. In addition, in test [3], the “kinact Caspase-3” value is “A (Compounds with kinact(M^−1s^−1)>500000 are listed as “A”)”. The “kinact Caspase-1” value in test [4] is “A (Compounds with kinact(M^−1s^−1)>500000 are listed as “A”)”.
`CC[C@@H](C(=O)NC(CC(=O)O)C(=O)CF)n1ccc2ccc(C(F)(F)F)cc2c1=O` (mixture of isomers) [Compound 2, (S)-3-[2-(7-trifluoromethyl-1-oxo-1H-isoquinolin-2-yl)-butyrylamino]-5-fluoro-4-oxo-pentanoic acid]: the values for the IC50 (in the test on rat cortical neurons; in test [1]) were above 500 nM and below 1000 nM, respectively. In addition, the “kinact Caspase-8” value in test [2] is listed as “A (Compounds with kinact(M^−1s^−1)>500000 are listed as “A”)”. The “kinact Caspase-3” value in test [3] is recorded as “A (Compounds with kinact(M^−1s^−1)>500000 are listed as “A”)”. The “kinact Caspase-1” value in test [4] is on record as “A (Compounds with kinact(M^−1s^−1)>500000 are listed as “A”)”.
As to `CC[C@@H](C(=O)NC(CC(=O)O)C(=O)CF)n1ccc2cc(Cl)ccc2c1=O` (mixture of isomers) [Compound 3, (S)-3-[2-(6-chloro-1-oxo-1H-isoquinolin-2-yl)-butyrylamino]-5-fluoro-4-oxo-pentanoic acid], the values for the concentration for half-maximal inhibition (IC50) (in the test with rat cortical neurons; in test [1]) were 100 to 500 nM and 1000 to 10000 nM, respectively. The “kinact Caspase-8” value in test [2] was “C (Compounds with kinact(M^−1s^−1)<100000 are listed as “C”)”. Moreover, the “kinact Caspase-3” value in test [3] is “B (Compounds with kinact(M^−1s^−1) between 100000 and 500000 are listed as “B”)”. Also, in test [4], the “kinact Caspase-1” value was “B (Compounds with kinact(M^−1s^−1) between 100000 and 500000 are listed as “B”)”.
As to `CC(C)[C@@H](C(=O)NC(CC(=O)O)C(=O)CF)n1ccc2ccc(Cl)cc2c1=O` (mixture of isomers) [Compound 18, (S)-3-[2-(7-chloro-1-oxo-1H-isoquinolin-2-yl)-3-methylbutyrylamino]-5-fluoro-4-oxo-pentanoic acid], the IC50 with rat cortical neurons was in the range of 100 to 500 nM; in test [1], 1000 to 10000 nM. Further, the “kinact Caspase-8” value in test [2] was “C (Compounds with kinact(M^−1s^−1)<100000 are listed as “C”)”. For the same compound, in test [3], the “kinact Caspase-3” value was “B (Compounds with kinact(M^−1s^−1) between 100000 and 500000 are listed as “B”)”. In addition, the “kinact Caspase-1” value in test [4] is “B (Compounds with kinact(M^−1s^−1) between 100000 and 500000 are listed as “B”)”.
As to `CC[C@@H](C(=O)NC(CC(=O)O)C(=O)CF)n1ccc2ccc(-c3ccccc3)cc2c1=O` (mixture of isomers) [Compound 21, (S)-3-[2-(7-phenyl-1-oxo-1H-isoquinolin-2-yl)-butyrylamino]-5-fluoro-4-oxo-pentanoic acid], the IC50 in the test with rat cortical neurons was 100 to 500 nM; in test [1] it was 1000 to 10000 nM. Also, in test [2], the “kinact Caspase-8” value was “A (Compounds with kinact(M^−1s^−1)>500000 are listed as “A”)”. Moreover, in test [3], the “kinact Caspase-3” value is “A (Compounds with kinact(M^−1s^−1)>500000 are listed as “A”)”. Moreover, the “kinact Caspase-1” value in test [4] was “A (Compounds with kinact(M^−1s^−1)>500000 are listed as “A”)”.
In the case of `CC[C@@H](C(=O)NC(CC(=O)O)C(=O)CF)n1ccc2cc(C(F)(F)F)ccc2c1=O` (stereo in doubt) [Compound 4, (S)-3-[2-(6-trifluoromethyl-1-oxo-1H-isoquinolin-2-yl)-butyrylamino]-5-fluoro-4-oxo-pentanoic acid], the concentration for half-maximal inhibition (IC50) in the test on rat cortical neurons is above 500 nM; in test [1] it was 1000 to 10000 nM. In addition, the “kinact Caspase-8” value in test [2] is “C (Compounds with kinact(M^−1s^−1)<100000 are listed as “C”)”. In addition, the “kinact Caspase-3” value in test [3] is “B (Compounds with kinact(M^−1s^−1) between 100000 and 500000 are listed as “B”)”. In addition, the “kinact Caspase-1” value in test [4] was “B (Compounds with kinact(M^−1s^−1) between 100000 and 500000 are listed as “B”)”.
Regarding `CC[C@@H](C(=O)N[C@@H](CC(=O)O)C(=O)COc1c(F)c(F)cc(F)c1F)n1cnc2ccc(Cl)cc2c1=O` [Compound 5, (S,S)-3-[2-(6-Chloro-4-oxo-4H-quinazolin-3-yl)-butyrylamino]-4-oxo-5-(2,3,5,6-tetrafluoro-phenoxy)pentanoic acid], the half-maximal inhibitory concentration (IC50) lay in the range of 100 to 500 nM in the test on rat cortical neurons and 1000 to 10000 nM in test [1]. Moreover, the “kinact Caspase-8” value in test [2] is “B (Compounds with kinact(M^−1s^−1) between 100000 and 500000 are listed as “B”)”. Moreover, the “kinact Caspase-3” value in test [3] is recorded as “A (Compounds with kinact(M^−1s^−1)>500000 are listed as “A”)”. Besides, in test [4], the “kinact Caspase-1” value is listed as “A (Compounds with kinact(M^−1s^−1)>500000 are listed as “A”)”.
Regarding `CC[C@@H](C(=O)N[C@@H](CC(=O)O)C(=O)COc1c(F)c(F)cc(F)c1F)n1cnc2ccccc2c1=O` [Compound 6, (S,S)-4-Oxo-3-[2-(4-oxo-4H-quinazolin-3-yl)-butyrylamino]-5-(2,3,5,6-tetrafluoro-phenoxy)pentanoic acid], the 50% inhibitory concentration (IC50) in the test with rat cortical neurons lay in the range of 100 to 500 nM; in test [1], 1000 to 10000 nM. Further, the “kinact Caspase-8” value in test [2] is reported as “C (Compounds with kinact(M^−1s^−1)<100000 are listed as “C”)”. The “kinact Caspase-3” value in test [3] is listed as “A (Compounds with kinact(M^−1s^−1)>500000 are listed as “A”)”. Also, the “kinact Caspase-1” value in test [4] was “B (Compounds with kinact(M^−1s^−1) between 100000 and 500000 are listed as “B”)”.
In the case of `CC[C@@H](C(=O)N[C@@H](CC(=O)O)C(=O)COc1c(F)cc(F)cc1F)n1cnc2ccccc2c1=O` [Compound 7, (S,S)-4-Oxo-3-[2-(4-oxo-4H-quinazolin-3-yl)-butyrylamino]-5-(2,4,6-trifluoro-phenoxy)-pentanoic acid], the IC50 is above 500 nM in the test on rat cortical neurons and above 10000 nM in test [1]. In test [2], the “kinact Caspase-8” value was “C (Compounds with kinact(M^−1s^−1)<100000 are listed as “C”)”. Also, the “kinact Caspase-3” value in test [3] is “B (Compounds with kinact(M^−1s^−1) between 100000 and 500000 are listed as “B”)”. The “kinact Caspase-1” value in test [4] is recorded as “C (Compounds with kinact(M^−1s^−1)<100000 are listed as “C”)”.
`CC[C@@H](C(=O)N[C@@H](CC(=O)O)C(=O)COc1c(F)ccc(F)c1F)n1cnc2ccccc2c1=O` [Compound 8, (S,S)-4-Oxo-3-[2-(4-oxo-4H-quinazolin-3-yl)-butyrylamino]-5-(2,5,6-trifluoro-phenoxy)-pentanoic acid]: the IC50 lay in the range of 100 to 500 nM in the test with rat cortical neurons and 1000 to 10000 nM in test [1]. Besides, the “kinact Caspase-8” value in test [2] was “C (Compounds with kinact(M^−1s^−1)<100000 are listed as “C”)”. The “kinact Caspase-3” value in test [3] is “B (Compounds with kinact(M^−1s^−1) between 100000 and 500000 are listed as “B”)”. Also, the “kinact Caspase-1” value in test [4] is “B (Compounds with kinact(M^−1s^−1) between 100000 and 500000 are listed as “B”)”.
